Legend:
[1] = target: T1, human κ (CHO-KOR) opioid receptor (Homo sapiens, UniProt P41145); assay: Radioligand binding assay, [3H]diprenorphine displacement, KOR; details: displacement of 0.2 nM [3H]diprenorphine, CHO-KOR membranes; mean ± standard error
T1 construct: expressed in transfected cells
Experimental: (§1) In Vitro Pharmacology-Cell Lines and Membrane Preparations. All tissue culture reagents were purchased from Gibco Life Sciences (Grand Island, N.Y., U.S.). C6-rat glioma cells stably transfected with a rat μ (C6-MOR) or rat δ (C6-DOR) opioid receptor20 and Chinese hamster ovary (CHO) cells stably expressing a human K (CHO-KOR) opioid receptor21 were used for all in vitro assays. Cells were grown to confluence at 37° C. in 5% CO2 in Dulbecco's modified Eagle medium containing 10% fetal bovine serum and 5% penicillin/streptomycin. Membranes were prepared by washing confluent cells three times with ice cold phosphate buffered saline (0.9% NaCl, 0.61 mM Na2HPO4, 0.38 mM KH2PO4, pH 7.4). Cells were detached from the plates by incubation in warm harvesting buffer (20 mM HEPES, 150 mM NaCl, 0.68 mM EDTA, pH 7.4) and pelleted by centrifugation at 200 g for 3 min. The cell pellet was suspended in ice-cold 50 mM Tris-HCl buffer, pH 7.4, and homogenized with a Tissue Tearor (Biospec Products, Inc., Bartlesville, Okla., U.S.) for 20 s at setting 4. The homogenate was centrifuged at 20 000 g for 20 min at 4° C., and the pellet was rehomogenized in 50 mM Tris-HCl with a Tissue Tearor for 10 s at setting 2, followed by recentrifugation. The final pellet was resuspended in 50 mM Tris-HCl and frozen in aliquots at […]. Protein concentration was determined via Bradford assay using bovine serum albumin as the standard.
(§2) Radioligand Binding Assays. Radioactive compounds were purchased from Perkin-Elmer (Waltham, Mass., U.S.). Opioid ligand binding assays were performed using competitive displacement of 0.2 nM [3H]diprenorphine (250 μCi, 1.85 TBq/mmol) by the test compound from membrane preparations containing opioid receptors. The assay mixture, containing membrane suspension (20 μg protein/tube) in 50 mM Tris-HCl buffer (pH 7.4), [3H]diprenorphine, and various concentrations of test peptide, was incubated at room temperature for 1 h to allow binding to reach equilibrium. The samples were rapidly filtered through Whatman GF/C filters using a Brandel harvester (Brandel, Gaithersburg, Md., U.S.) and washed three times with 50 mM Tris-HCl buffer. The radioactivity retained on dried filters was determined by liquid scintillation counting after saturation with EcoLume liquid scintillation cocktail in a Wallac 1450 MicroBeta (Perkin-Elmer, Waltham, Mass., U.S.). Nonspecific binding was determined using 10 μM naloxone. Inhibitory constant (Ki) values were calculated using nonlinear regression analysis to fit a logistic equation to the competition data using GraphPad Prism, version 5.01, for Windows (GraphPad Software Inc., La Jolla, Calif.). The results presented are the mean±standard error from at least three separate assays performed in duplicate.

[2] = target: T2, rat μ (C6-MOR) opioid receptor (Rattus norvegicus, UniProt P33535); assay: Stimulation of [35S]GTPγS binding, MOR; format: biochemical; details: for EC50 / EC50 (nm) MOR: [35S]GTPγS binding, C6-MOR membranes, mean ± standard error; for Emax / % stimulation MOR: [35S]GTPγS maximal stimulation compared with 10 μM standard DAMGO
T2 construct: expressed in transfected cells
Experimental: as §1
(§3) Stimulation of [^35S]GTPyS Binding. Agonist stimulation of [35S]guanosine 5′-O-[γ-thio]triphosphate ([^35S]GTPγS, 1250 Ci, 46.2 TBq/mmol) binding was measured as described previously Briefly, membranes (10-20 μg of protein/tube) were incubated 1 h at room temperature in GTPyS buffer (50 mM Tris-HCl, 100 mM NaCl, 5 mM MgCl2, pH 7.4) containing 0.1 nM [^35S]GTPγS, 30 μM guanosine diphosphate (GDP), and varying concentrations of test peptides. Peptide stimulation of [^35S]GTPyS was compared with 10 μM standard compounds [D-Ala^2,N-MePhe^4,Gly-ol]encephalin (DAMGO) at MOR, D-Pen^2,5-enkephalin (DPDPE) at DOR, or […] at KOR. The reaction was terminated by rapidly filtering through GF/C filters and washing 10 times with GTPyS buffer, and retained radioactivity was measured as described above. The results presented are the mean±standard error from at least three separate assays performed in duplicate; maximal stimulation was determined using nonlinear regression analysis with GraphPad Prism (GraphPad Software Inc., La Jolla, Calif.).

[3] = target: T3, rat δ (C6-DOR) opioid receptor (Rattus norvegicus, UniProt P33533); assay: Radioligand binding assay, [3H]diprenorphine displacement, DOR; details: displacement of 0.2 nM [3H]diprenorphine, C6-DOR membranes; mean ± standard error
T3 construct: expressed in transfected cells
Experimental: as §1, §2

[4] = target: T2, rat μ (C6-MOR) opioid receptor; assay: Radioligand binding assay, [3H]diprenorphine displacement, MOR; details: displacement of 0.2 nM [3H]diprenorphine, C6-MOR membranes; mean ± standard error
Experimental: as §1, §2

[5] = target: T3, rat δ (C6-DOR) opioid receptor; assay: Stimulation of [35S]GTPγS binding, DOR; format: biochemical; details: for EC50 / EC50 (nm) DOR: [35S]GTPγS binding, C6-DOR membranes, mean ± standard error; for Emax / % stimulation DOR: [35S]GTPγS maximal stimulation compared with 10 μM standard DPDPE
Experimental: as §1, §3

[6] = target: T1, human κ (CHO-KOR) opioid receptor; assay: Stimulation of [35S]GTPγS binding, KOR; format: biochemical
Experimental: as §1, §3

T1 sequence (P41145 whole entry): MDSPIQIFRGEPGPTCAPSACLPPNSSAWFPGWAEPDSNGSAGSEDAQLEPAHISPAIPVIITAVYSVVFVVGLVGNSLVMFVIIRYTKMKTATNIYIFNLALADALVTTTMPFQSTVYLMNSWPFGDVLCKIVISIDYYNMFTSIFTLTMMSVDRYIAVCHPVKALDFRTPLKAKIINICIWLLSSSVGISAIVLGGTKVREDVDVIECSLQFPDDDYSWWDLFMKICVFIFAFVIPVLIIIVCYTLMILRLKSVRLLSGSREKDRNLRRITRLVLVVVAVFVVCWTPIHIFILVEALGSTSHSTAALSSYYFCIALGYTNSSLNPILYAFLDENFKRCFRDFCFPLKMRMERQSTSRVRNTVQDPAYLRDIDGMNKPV
T3 sequence (P33533 whole entry): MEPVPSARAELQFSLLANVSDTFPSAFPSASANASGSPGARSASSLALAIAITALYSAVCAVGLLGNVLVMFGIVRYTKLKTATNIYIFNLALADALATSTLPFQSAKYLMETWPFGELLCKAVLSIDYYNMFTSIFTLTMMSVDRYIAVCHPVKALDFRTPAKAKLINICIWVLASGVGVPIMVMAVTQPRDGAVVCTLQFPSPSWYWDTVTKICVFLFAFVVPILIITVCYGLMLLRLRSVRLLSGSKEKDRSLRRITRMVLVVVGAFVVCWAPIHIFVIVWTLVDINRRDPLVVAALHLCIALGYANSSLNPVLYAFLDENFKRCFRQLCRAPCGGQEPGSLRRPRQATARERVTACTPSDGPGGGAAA
T2 sequence (P33535 whole entry): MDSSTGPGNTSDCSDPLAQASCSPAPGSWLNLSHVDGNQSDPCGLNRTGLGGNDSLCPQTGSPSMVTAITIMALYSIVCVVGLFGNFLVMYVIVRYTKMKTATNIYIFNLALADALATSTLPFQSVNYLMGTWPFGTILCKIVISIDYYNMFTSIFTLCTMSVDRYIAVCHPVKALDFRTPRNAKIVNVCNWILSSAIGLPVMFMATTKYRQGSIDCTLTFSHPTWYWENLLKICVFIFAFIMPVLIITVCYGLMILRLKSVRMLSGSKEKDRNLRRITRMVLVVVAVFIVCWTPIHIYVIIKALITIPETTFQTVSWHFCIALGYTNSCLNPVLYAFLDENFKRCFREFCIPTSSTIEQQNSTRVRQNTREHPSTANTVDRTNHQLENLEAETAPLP

Structure (SMILES) | Ki [1] [nM] | EC50 [2] [nM] | Emax [2] [%] | Ki [3] [nM] | Ki [4] [nM] | EC50 [5] [nM] | Emax [5] [%] | EC50 (nm) DOR [5] | % stimulation DOR [5] | EC50 (nm) MOR [2] | % stimulation MOR [2] | EC50 ([6]; [35S]GTPγS binding, CHO-KOR membranes, mean ± standard error) [nM] | Emax ([6]; [35S]GTPγS maximal stimulation compared with 10 μM standard U-69,593) [%]
Cc1cc(O)cc(C)c1C[C@H](N)C(=O)N[C@H]1CCNc2ccc(Oc3ccccc3)cc21 [Compound 1018] | 494 | 1300 | 16.6 ± 16.6 | 277 ± 47.4 | 41.3 ± 6.34 | 2000 | 19.6 | – | – | – | – | – | –
CC(=O)N1CC[C@H](NC(=O)[C@@H](N)Cc2c(C)cc(O)cc2C)c2cc(Oc3ccccc3)ccc21 [Compound 1020] | 787 | 598 ± 282 | 60.4 ± 2.04 | 92.9 ± 15.1 | 6.25 ± 1.39 | 204 | 16 | – | – | – | – | – | –
COc1cc(Cl)c(C[C@H](N)C(=O)N[C@@H]2CCNc3ccc(Cc4ccccc4)cc32)c(Cl)c1 [Compound 1021] | 1210 | 1390 ± 480 | 34.8 ± 2.52 | 2700 | 38.1 ± 5.83 | – | – | – | – | – | – | – | –
Cc1cc(O)cc(C)c1C[C@H](N)C(=O)N[C@@H]1CCNc2ccc(C(c3ccccc3)c3ccccc3)cc21 [Compound 1022] | 6.91 ± 0.21 | 12.5 ± 8.76 | 24.5 ± 0.29 | 2.29 ± 0.36 | 0.2 ± 0.02 | – | 0 | – | – | – | – | – | –
Cc1cc(O)cc(C)c1C[C@H](N)C(=O)N[C@@H]1CCNc2cc(Cc3ccccc3)ccc21 [Compound 1023] | 91.6 | 25.4 ± 22.2 | 18.1 ± 4.92 | 25.8 ± 1.61 | 0.78 ± 0.27 | – | – | dns | dns | – | – | – | –
Cc1cc(O)cc(C)c1C[C@H](N)C(=O)N[C@H]1CCNc2cc(Cc3ccccc3)ccc21 [Compound 1024] | 1030 | – | – | 295 ± 108 | 21.1 ± 11.9 | – | – | dns | dns | dns | dns | – | –
Cc1cc(O)cc(C)c1C[C@H](N)C(=O)N[C@@H]1CCNc2ccc(Oc3ccc(Cl)cc3)cc21 [Compound 1025] | 24.8 | 9.7 ± 1.32 | 52.9 ± 4.46 | 12.1 ± 3.52 | 0.1 ± 0.03 | 0.3 | 1.18 ± 1.18 | – | – | – | – | – | –
N[C@@H](Cc1ccc(Cl)cc1Cl)C(=O)N[C@@H]1CCNc2ccc(Cc3ccccc3)cc21 [Compound 1028] | – | – | 13.8 ± 1.27 | 2090 | 50.6 ± 10.6 | – | 0 | – | – | – | – | – | –
COc1ccccc1Oc1ccc2c(c1)[C@H](NC(=O)[C@@H](N)Cc1c(C)cc(O)cc1C)CCN2 [Compound 1029] | – | 46.7 ± 4.12 | 35.7 ± 2.58 | 9.97 ± 0.71 | 0.36 ± 0.04 | – | 0 | – | – | – | – | – | –
Cc1cc(O)cc(C)c1C[C@H](N)C(=O)N[C@@H]1CCNc2ccc(Oc3cccc(Cl)c3)cc21 [Compound 1030] | – | 10.1 ± 3.25 | 27.2 ± 2.11 | 2.59 | 0.08 ± 0.01 | – | – | – | – | – | – | – | –
COc1ccccc1Oc1ccc2c(c1)[C@H](NC(=O)[C@@H](N)Cc1c(C)cc(O)cc1C)CCN2C(C)=O [Compound 1031] | – | 39.7 ± 17 | 30.5 ± 1.74 | 2.7 | 0.27 ± 0.05 | – | – | – | – | – | – | – | –
CCC(=O)N1CC[C@@H](NC(=O)[C@@H](N)Cc2c(C)cc(O)cc2C)c2cc(CC3Cc4ccccc4C3)ccc21 [Compound 1033] | – | 3.61 ± 2.02 | 52 ± 7.7 | 0.3 ± 0.11 | 0.06 ± 0.01 | – | – | dns | dns | – | – | – | –
COc1cccc2c1CC(Cc1ccc3c(c1)[C@H](NC(=O)[C@@H](N)Cc1c(C)cc(O)cc1C)CCN3)C2 (stereo partly drawn) [Compound 1035, (2S)-2-amino-3-(4-hydroxy-2,6-dimethylphenyl)-N-((4R)-6-((4-methoxy-2,3-dihydro-1H-inden-2-yl)methyl)-1,2,3,4-tetrahydroquinolin-4-yl)propanamide] | – | 1.44 | 32.9 | 4.13 ± 2.27 | 0.09 | – | – | dns | dns | – | – | – | –
COc1ccc2c(c1)CC(Cc1ccc3c(c1)[C@H](NC(=O)[C@@H](N)Cc1c(C)cc(O)cc1C)CCN3)C2 (some centres unmarked) [Compound 1037] | – | 354 | 10.9 | 6.15 ± 2.09 | 0.26 ± 0.15 | – | – | dns | dns | – | – | – | –
CC(=O)N1CC[C@@H](NC(=O)[C@@H](N)Cc2c(C)cc(O)cc2C)c2cccc(Cc3ccccc3)c21 [Compound 1040] | – | 19 | 8.03 | 6.19 | 92.4 | – | – | – | – | – | – | – | –
Cc1cc(O)cc(C)c1C[C@H](N)C(=O)N[C@@H]1CCNc2ccc(CN3CCNCC3)cc21 [Compound 1059] | 11.7 ± 1.56 | 90.5 ± 73.2 | – | 1560 ± 288 | 16.6 ± 8.63 | – | – | – | – | – | dns | – | –
Cc1cc(O)cc(C)c1C[C@H](N)C(=O)N[C@@H]1CCNc2ccc(CN3CCC4(CCCCC4)C3)cc21 [Compound 1105] | 1.66 | – | – | 14.1 | 1.14 | – | – | – | – | – | – | – | –
Cc1cc(O)cc(C)c1C[C@H](N)C(=O)N[C@@H]1CCNc2ccc(CN3CCCC4(CCCCC4)CC3)cc21 [Compound 1106] | 3.08 | – | – | 17 | 0.54 | – | – | – | – | – | – | – | –
CCCc1cc(Cc2ccccc2)cc2c1N(C(C)=O)CC[C@H]2NC(=O)[C@@H](N)Cc1c(C)cc(O)cc1C [Compound 1107] | 32.7 | – | – | 1.95 | 0.35 | – | – | – | – | – | – | – | –
CC(=O)N1CC[C@@H](NC(=O)[C@@H](N)Cc2c(C)cc(O)cc2C)c2cc(Cc3ccccc3)cc(Br)c21 [Compound 1108] | 33.3 | – | – | 1.35 | 0.49 | – | – | – | – | – | – | – | –
N[C@@H](Cc1c(Cl)cc(O)cc1Cl)C(=O)N[C@@H]1CCCc2ccc(Oc3ccccc3)cc21 [Compound 1119] | – | 118 ± 76 | 20.7 ± 2.91 | 105 ± 10.5 | 1.53 ± 0.64 | – | – | dns | dns | – | – | – | –
Cc1cc(O)cc(C)c1C[C@H](N)C(=O)N[C@@H]1CC[C@H](C)c2ccc(Cc3ccccc3)cc21 [Compound 1120] | – | 16 ± 1.94 | 72.3 ± 3.67 | 5.85 ± 0.58 | 0.08 ± 0.02 | – | – | dns | dns | – | – | – | –
Cc1cc(O)cc(C)c1C[C@H](N)C(=O)N[C@@H]1CC[C@@H](C)c2ccc(Cc3ccccc3)cc21 [Compound 1121] | – | – | – | 15.8 ± 4.72 | 0.32 ± 0.1 | 109 ± 80.7 | 14.3 ± 4.34 | – | – | dns | dns | – | –
Cc1cc(O)cc(C)c1C[C@H](N)C(=O)N[C@@H]1CCC(C)(C)c2ccc(Cc3ccccc3)cc21 [Compound 1122] | – | 16 ± 4.74 | 75.4 ± 4.06 | 6.5 ± 0.66 | 0.36 ± 0.08 | 1090 ± 654 | 16 ± 2.78 | – | – | – | – | 2100 | 77.8
